According to US8188077B2, “Apoptosis-inducing agents for the treatment of cancer and immune and autoimmune diseases” (Abbott Laboratories, priority 2010, dated 2012):
pKi: −log10 of the molar value.

Molecular target: T1, Bcl-2 protein (Homo sapiens, UniProt P10415, DELINS35-91DVEENRTEAPEGTESE, form not given)
T1 construct: fused on or other part: Bcl-xL (Q07817) residues 29-44 stand in place of Bcl-2's own unstructured loop 35-91; The C-terminal membrane anchor (208-239) is absent
Test: Bcl-2 fluorescence polarization assay (FPA) binding
Conditions: 10 nM Bcl-2 protein, 1 nM fluorescein-labeled BAX peptide, room temperature, read-out: Bcl-2 FPA 11pt Ki
Method in brief: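 Competitive fluorescence polarization with 10 nM Bcl-2 protein and 1 nM fluorescein-labeled BAX peptide in 20 mM phosphate pH 7.4, 1 mM EDTA, 0.05% PF-68. Compound dilutions in DMSO spanned […] to 10 pM; mix shaken 2 min, polarization read at room temperature (ex 485/em 530 nm); Ki values calculated.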

T1 sequence (P10415 with tags, fused parts or gaps with the stated changes): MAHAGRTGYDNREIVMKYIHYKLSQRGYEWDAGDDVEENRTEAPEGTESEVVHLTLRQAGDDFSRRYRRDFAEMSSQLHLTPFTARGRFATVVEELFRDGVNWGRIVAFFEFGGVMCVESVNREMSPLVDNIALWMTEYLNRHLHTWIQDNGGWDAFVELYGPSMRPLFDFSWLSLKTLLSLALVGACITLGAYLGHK

Row | Compound | pKi
1 | C[C@@H]1[C@@H](Nc2cccc(C=C3CCN(c4ccc(C(=O)NS(=O)(=O)c5ccc(NCC6CCOCC6)c([N+](=O)[O-])c5)cc4)CC3)c2)C[C@H]2C[C@@H]1C2(C)C [Example 73, N-({3-nitro-4-[(tetrahydro-2H-pyran-4-ylmethyl)amino]phenyl}sulfonyl)-4-[4-(3-{[(1S,2S,3S,5R)-2,6,6-trimethylbicyclo[3.1.1]hept-3-yl]amino}benzylidene)piperidin-1-yl]benzamide] | 7.03
2 | O=C(NS(=O)(=O)c1ccc(NCC2CCOCC2)c([N+](=O)[O-])c1)c1ccc(N2CCC(=Cc3ccccc3-c3ccc(-c4nc(C56CC7CC(CC(C7)C5)C6)cs4)s3)CC2)cc1 [Example 74, 4-[4-(2-{5-[4-(adamantan-1-yl)-1,3-thiazol-2-yl]-2-thienyl}benzylidene)piperidin-1-yl]-N-({3-nitro-4-[(tetrahydro-2H-pyran-4-ylmethyl)amino]phenyl}sulfonyl)benzamide] | 6.99
3 | O=C(NS(=O)(=O)c1ccc(NCC2CCOCC2)c([N+](=O)[O-])c1)c1ccc(N2CCC(=Cc3ccccc3-c3ccc(-c4nc(-c5ccccc5)cs4)s3)CC2)cc1 [Example 75, N-({3-nitro-4-[(tetrahydro-2H-pyran-4-ylmethyl)amino]phenyl}sulfonyl)-4-(4-{2-[5-(4-phenyl-1,3-thiazol-2-yl)-2-thienyl]benzylidene}piperidin-1-yl)benzamide] | 6.60
4 | CC1(C)[C@@H]2CC[C@@]1(C)CN(c1ccc(C(=O)NS(=O)(=O)c3ccc(NC4CCOCC4)c([N+](=O)[O-])c3)cc1)C2 [Example 79, N-{[3-nitro-4-(tetrahydro-2H-pyran-4-ylamino)phenyl]sulfonyl}-4-[(1R,5S)-1,8,8-trimethyl-3-azabicyclo[3.2.1]oct-3-yl]benzamide] | 5.85
5 | COc1ccc(-c2ccc3cc(C(=O)NS(=O)(=O)c4ccc(NCC5CCCCC5)c([N+](=O)[O-])c4)ccc3c2)cc1C12CC3CC(CC(C3)C1)C2 [Example 80, 6-{3-[adamantan-1-yl]-4-methoxyphenyl}-N-({4-[(cyclohexylmethyl)amino]-3-nitrophenyl}sulfonyl)-2-naphthamide] | 5.89
6 | N-(adamantan-2-yl)-6-methyl-8-{2-[(4-{4-[({3-nitro-4-[(tetrahydro-2H-pyran-4-ylmethyl)amino]phenyl}sulfonyl)carbamoyl]phenyl}piperazin-1-yl)methyl]phenyl}imidazo[1,2-a]pyridine-2-carboxamide [Example 26] | 5.93

The remaining lines, values ahead:

Row | pKi | Compound
7 | 5.33 | O=C(NS(=O)(=O)c1ccc(NC2CCOCC2)c([N+](=O)[O-])c1)c1ccc(N2CCN(C(=O)CC34CC5CC(CC(C5)C3)C4)CC2)cc1 [Example 81, 4-{4-[adamantan-1-ylacetyl]piperazin-1-yl}-N-{[3-nitro-4-(tetrahydro-2H-pyran-4-ylamino)phenyl]sulfonyl}benzamide]
8 | 5.66 | O=C(NS(=O)(=O)c1ccc(NC2CCOCC2)c([N+](=O)[O-])c1)c1ccc(NCC23CC4CC(CC(C4)C2)C3)cc1 [Example 82, 4-{[adamantan-1-ylmethyl]amino}-N-{[3-nitro-4-(tetrahydro-2H-pyran-4-ylamino)phenyl]sulfonyl}benzamide]
9 | < 5.20 | O=C(NS(=O)(=O)c1ccc(NC2CCOCC2)c([N+](=O)[O-])c1)c1ccc(N2CCC(NC(=O)C34CC5CC(CC(C5)C3)C4)CC2)cc1 [Example 83, N-{1-[4-({[3-nitro-4-(tetrahydro-2H-pyran-4-ylamino)phenyl]sulfonyl}carbamoyl)phenyl]piperidin-4-yl}adamantane-1-carboxamide]
10 | 5.62 | O=C(NS(=O)(=O)c1ccc(NC2CCOCC2)c([N+](=O)[O-])c1)c1ccc(NC2C3CC4CC(C3)CC2C4)cc1 (centres unmarked) [Example 84, 4-[adamantan-2-ylamino]-N-{[3-nitro-4-(tetrahydro-2H-pyran-4-ylamino)phenyl]sulfonyl}benzamide]
11 | 5.54 | C[C@@H]1[C@H]2C[C@@H](C[C@H]1Oc1ccc(C(=O)NS(=O)(=O)c3ccc(NC4CCOCC4)c([N+](=O)[O-])c3)cc1)C2(C)C [Example 85, N-{[3-nitro-4-(tetrahydro-2H-pyran-4-ylamino)phenyl]sulfonyl}-4-{[(1R,2R,3R,5S)-2,6,6-trimethylbicyclo[3.1.1]hept-3-yl]oxy}benzamide]
